From the OPERA property sets (Mansouri et al. 2018)
Peptide text beside a SMILES is read from it. * marks the point of attachment. NHtBu = CC(C)(C)N*

`CC(C(=O)O)c1ccc(-c2ccccc2)c(F)c1` (stereo not drawn) showed a logP of 4.16.
`Oc1ccc(O)c(Cl)c1` gave a logP of 1.4.
For `O=c1[nH]c(=O)n([C@H]2C[C@H](O)[C@@H](CO)O2)cc1F`, the logP was -1.16.
`C=CCOC(=O)c1ccccc1C(=O)OCC=C` showed a logP of 3.23.
With `CN(C)CCOC(=O)c1ccccc1` the logP was 2.06.
`CCCS` showed a logP of 1.81.
`Nc1ccccc1-c1ccccc1` showed a logP of 2.84.
Compound `COc1cccc(O)c1` has a logP of 1.34.
`Oc1cc(O)cc(O)c1` gave a logP of 0.16.
Compound `c1ccc2c(c1)COC2` has a logP of 1.76.
With `O=[N+]([O-])c1cccc2ncccc12` the logP was 1.86.
`c1ccc2c(c1)OCCO2` gave a logP of 2.01.
Work on `CC1=NCCN1CCO` yielded a logP of 0.04.
With `O=[N+]([O-])CCc1ccccc1` the logP was 2.08.
With `CCCCCCBr` the logP was 3.8.
Work on `c1ccc(OP2OCCO2)cc1` yielded a logP of 1.42.
Compound `CC(=O)OCCBr` has a logP of 1.11.
Compound `CCOC(=O)C(O)c1ccccc1` (stereo not drawn) has a logP of 1.53.
For `O=C(O)c1cc(I)cc(I)c1O`, the logP was 4.56.
Compound `C#CCC(O)(c1ccc(F)cc1)c1cccnc1` (stereo not drawn) has a logP of 1.78.
Compound `NC(Cc1ccc(F)cc1)C(=O)O` (racemic) has a logP of -1.89.
Work on `NC(=O)c1cccc(F)c1` yielded a logP of 0.91.
For `CCCOc1cccc(C=C(C(C)=O)C(=O)OCC)c1`, the logP was 3.34.
Compound `O=C(O)COc1ccccc1I` has a logP of 2.33.
With `CCn1c(=O)c2[nH]c(-c3ccccc3)nc2n(CC)c1=O` the logP was 2.93.
For `COC1=CC(=O)c2ccccc2C1=O`, the logP was 1.35.
`COP(=S)(OC)Oc1cc(Cl)c(Br)cc1Cl` gave a logP of 5.21.
In the case of `O=NN1CCCC(O)C1` (stereo not drawn), the logP is reported as -0.47.
Work on `O=[N+]([O-])c1ccc(C=NO)cc1` yielded a logP of 1.95.
Compound `CCCCc1cccc(NC(=O)N(C)C)c1` has a logP of 3.23.
`CCOC(=O)C(C(=O)OCC)=C(C(=O)OCC)C(=O)OCC` gave a logP of 2.63.
In the case of `O=C(O)CCc1c[nH]c2ccccc12`, the logP is reported as 1.75.
With `CCCN1CCCN(CCC)C1=S` the logP was 2.83.
In the case of `CCOP(=O)(Cc1ccc(-c2nc3ccccc3s2)cc1)N1CCCC1=O` (stereo not drawn), the logP is reported as 3.
Work on `CCCCC1CC(C(=O)NC(C(C)O)C2OC(SC)C(O)C(O)C2O)N(C)C1` (stereo not drawn) yielded a logP of 0.56.
`CC(C)NC(C)C` showed a logP of 1.4.
Work on `O=S(=O)(O)c1ccc(O)c2ccccc12` yielded a logP of -0.44.
Work on `Clc1cc(Cl)c(Cl)c(Cl)c1` yielded a logP of 4.56.
`NC(=O)Nc1nc(-c2ccccc2)no1` showed a logP of 1.76.
For `CN(C)CC=Cc1ccccc1`, the logP was 2.61.
Compound `CC1CC2C3CC(F)C4=CC(=O)C(Cl)=CC4(C)C3(F)C(O)CC2(C)C1(O)C(=O)CO` (stereo not drawn) has a logP of 2.58.
For `CCC(C)c1ccccc1O` (stereo not drawn), the logP was 3.27.
Work on `Nc1ccc(C(=O)O)c(F)c1` yielded a logP of 1.29.
With `O=c1[nH]cc(C(F)(F)F)c(=O)[nH]1` the logP was 0.04.
In the case of `Nc1c([N+](=O)[O-])cccc1[N+](=O)[O-]`, the logP is reported as 1.79.
`c1ccc2c(c1)-c1cccc3cccc-2c13` showed a logP of 5.16.
`CC(C)SC(C)C` gave a logP of 2.84.
For `CC(=O)c1cccc(F)c1`, the logP was 1.77.
With `CCCOP(OCCC)OCCC` the logP was 2.26.
In the case of `CC(=O)Oc1cccc(O)c1`, the logP is reported as 1.23.
For `CC[C@H](C)[C@H](NC(C)=O)C(=O)N[C@@H](C)C(=O)N[C@H](C(N)=O)C(C)C`, the logP was -0.21.
For `Clc1ccc(-c2ccccc2)cc1`, the logP was 4.61.
Work on `NC(=O)Cc1cccnc1` yielded a logP of -0.71.
In the case of `C[C@@H]1C[C@@H]([C@H](O)CC2CC(=O)NC(=O)C2)C(=O)[C@@H](C)C1`, the logP is reported as 0.55.
With `CC(=O)NC(C)C(=O)NC(CC(=O)O)C(=O)NC(C)C(=O)NC(C)(C)C` (stereo not drawn) (Ac-Ala-Asp-Ala-NHtBu; configuration not given here) the logP was -0.74.
`Oc1cnc2ccccc2n1` showed a logP of 0.8.
For `O=C(O)C1c2ccccc2-c2ccccc21`, the logP was 2.8.
With `NC(Cc1ccc2ccccc2c1)C(=O)O` (stereo not drawn) the logP was -0.15.
`COc1cc2c(c(OC)c1OC)-c1ccc(O)c(=O)cc1[C@@H](NC(=O)C(F)(F)F)CC2` gave a logP of 1.82.
`NCC(=O)NCC(=O)O` showed a logP of -2.92.
For `CC(=O)N(c1ccccc1)c1ccccc1`, the logP was 2.02.
`CC(=NNC(=S)NNC(=S)N(C)C)c1ccccn1` gave a logP of 1.25.
`COc1ccc(O)c2nccc(C)c12` gave a logP of 2.75.
For `COC(=S)NCCn1c([N+](=O)[O-])cnc1C`, the logP was 1.15.
For `O=P(Oc1ccccc1)(Oc1ccccc1)Oc1ccccc1`, the logP was 4.59.
`C/N=C(\N)NC#N` gave a logP of -0.77.
`CC(C)Oc1ccc([N+](=O)[O-])cc1` showed a logP of 2.8.
`c1ccc(COc2ccccc2)cc1` gave a logP of 3.79.
`CCCc1cccc(OCC(=O)O)c1` gave a logP of 2.71.
Work on `Cc1ccccc1C(=O)Nc1cccc(OC(C)C)c1` yielded a logP of 3.66.
With `Nc1cnnc2ccccc12` the logP was 1.04.
Compound `CCCC1(c2ccncc2)CCC(=O)NC1=O` (stereo not drawn) has a logP of 1.13.
`CCCCCc1ccc(N)cc1` gave a logP of 3.39.
With `Nc1nc(N)nc(-c2cccc(SC(F)(F)F)c2)n1` the logP was 3.2.
In the case of `CCC(=O)C1(c2cccc(OC(=O)CC(C)(C)C)c2)CCN(C)CC1`, the logP is reported as 3.17.
With `COc1cccc(C(=O)O)c1` the logP was 2.02.
Compound `O=C(O)COc1cccc(F)c1` has a logP of 1.48.
With `O=C1OC(c2ccccc2)c2ccccc21` (stereo not drawn) the logP was 2.64.
In the case of `CC(C)c1cc(Oc2ccccc2)cc(C(C)C)c1NC(=S)NC(C)(C)C`, the logP is reported as 6.
`CC(=O)C=Cc1ccco1` gave a logP of 1.35.
`O=C1CN=C(c2ccc(F)cc2)c2cc(Cl)ccc2N1` showed a logP of 2.9.
In the case of `C1=CCCCC1`, the logP is reported as 2.86.
`CC(=O)Sc1ccccc1` gave a logP of 2.23.
For `CN(C)C(=O)Nc1ccc(Cl)c(Cl)c1`, the logP was 2.68.
With `O=Cc1ccc2ccccc2n1` the logP was 2.14.
`CCCCCOC(=O)Nc1ccccc1` showed a logP of 3.8.
Compound `COP(=S)(OC)Oc1ccc([N+](=O)[O-])c(C(C)C)c1` has a logP of 4.05.
`COC(=O)/C=C\C(=O)OC` showed a logP of 0.22.
Work on `FC(F)(F)c1cccc2cccnc12` yielded a logP of 2.5.
`O=C(NC(=O)c1ccccc1O)c1ccccc1` showed a logP of 1.38.
`CC(=O)N(C)Nc1ccccc1` showed a logP of 1.31.
With `Cc1ccc(C(N)=O)cc1` the logP was 1.18.
With `CC(=O)Nc1ccccc1[N+](=O)[O-]` the logP was 1.
`Cc1cc2ccccc2n1C` showed a logP of 2.82.
Work on `C=C(C)Cl` yielded a logP of 2.
Work on `CCCCCCC(C)(C)c1ccc(C2CC(O)CCC2CCCCO)c(O)c1` (stereo not drawn) yielded a logP of 6.68.
`CC(=O)c1ccsc1` showed a logP of 1.24.
For `C=CCC1(C(C)C)C(=O)NC(=O)NC1=O`, the logP was 1.15.
With `CCCCOCCOCCO` the logP was 0.56.
Compound `CON(C)C(=O)Nc1cccc(C(F)(F)F)c1` has a logP of 2.64.
`CC(O)CNCC(C)O` (stereo not drawn) showed a logP of -0.82.
Compound `CS(=O)(=O)c1c(F)c(F)c(F)c(F)c1F` has a logP of 1.11.
`CCCCCCCCCC(=O)OC` gave a logP of 4.41.
For `NC(=O)C(F)(F)F`, the logP was 0.12.
`N#Cc1ccc(CC(=O)Nc2ccccc2)cc1` gave a logP of 2.82.
In the case of `NNC(=O)c1cccc(Br)c1`, the logP is reported as 1.26.
For `O=C(O)Cc1ccc(Br)cc1`, the logP was 2.31.
With `CCCCNC(N)=O` the logP was 0.41.
For `CCN(N=O)C(C)C`, the logP was 0.9.
`Nc1ccc(C(=O)Oc2cccc(Br)c2)c(O)c1` gave a logP of 3.84.
For `O=S1(=O)NC(C(F)(F)F)=Nc2cc(Cl)ccc21`, the logP was 1.65.
For `O=C(Nc1ccccc1)NC1CC(O)C(CO)OC1O` (stereo not drawn), the logP was -0.61.
For `O=C(O)Cc1cccc(Br)c1`, the logP was 2.37.
In the case of `O=[N+]([O-])c1ccc2sccc2c1`, the logP is reported as 2.92.
`CCN(CC)CCOC(=O)C=Cc1ccc(F)cc1` gave a logP of 3.52.
In the case of `CN(C)c1nc2c3cccnc3ccc2n1C`, the logP is reported as 2.28.
With `CC(C)(C)c1ccc([N+](=O)[O-])cc1` the logP was 3.89.
Compound `NCCc1c[nH]c2ccccc12` has a logP of 1.55.
Compound `N#C/C=C/c1ccccc1` has a logP of 1.96.
Compound `O=[N+]([O-])c1cccnc1` has a logP of 0.6.
Work on `CNC(=O)Oc1ccc(C(C)=O)cc1` yielded a logP of 1.01.
With `O=C(O)c1cc2ccccc2o1` the logP was 2.41.
`CC(C)c1ccc(OCC(=O)O)cc1` gave a logP of 2.69.
For `COc1cccc(C)c1`, the logP was 2.66.
With `Cn1cc[nH]c1=S` the logP was -0.34.
In the case of `CCC(=O)c1ccccc1`, the logP is reported as 2.19.
`CCCC(C)=O` gave a logP of 0.91.
For `FN(F)C(c1ccccc1)(c1ccccc1)c1ccccc1`, the logP was 3.73.
With `CCC1(c2ccccc2)C(=O)NC(=O)N(C)C1=O` (stereo not drawn) the logP was 1.84.
Work on `COC1C(O)C(C)OC(OC2CCC3(C)C(CCC4C3CCC3(C)C(C5=CC(=O)OC5)CCC43O)C2)C1O` (stereo not drawn) yielded a logP of 2.1.
In the case of `CCOCCO`, the logP is reported as -0.32.
Work on `NC(=O)CCc1ccncc1` yielded a logP of -0.25.
With `CCC[C@@H]1C[C@@H](C(=O)N[C@@H]([C@H]2O[C@H](SC)[C@H](O)[C@@H](O)[C@H]2O)[C@@H](C)O)N(C)C1` the logP was 0.2.
For `CCOC(N)=O`, the logP was -0.15.
`CCCCCOC(=O)c1ccc(S(N)(=O)=O)cc1` showed a logP of 2.71.
`Clc1ccc(-c2ccc(Cl)cc2Cl)c(Cl)c1` showed a logP of 6.29.
`CN(C)N=Nc1cccc2oc3ccccc3c12` gave a logP of 4.55.
`CCCCOC(=O)c1cccnc1` showed a logP of 2.27.
Work on `C=C1C(=O)OC2C1CCC(C)C1C=CC(=O)C12C` (stereo not drawn) yielded a logP of 1.03.
With `CC(=O)C=Cc1ccccc1` the logP was 2.07.
For `O=C(O)CSc1c[nH]c2ccccc12`, the logP was 1.78.
Work on `COC(=O)C=Cc1ccccc1` yielded a logP of 2.62.
Compound `CC(CN(C)C)CN1c2ccccc2Sc2ccccc21` (stereo not drawn) has a logP of 4.71.
For `COc1ccccc1NCC(C)=O`, the logP was 1.49.
With `c1cc2snnc2c2c1CCNC2` the logP was 1.35.
Compound `Nc1ccc(C(=O)Oc2ccc(Cl)cc2)c(O)c1` has a logP of 3.6.
With `C1=CC=CCC=C1` the logP was 2.63.
With `Clc1cccc(C(Cl)(Cl)Cl)n1` the logP was 3.41.
For `CCCCCCC(NC(C)=O)C(=O)OC` (stereo not drawn), the logP was 1.7.
`CCOC(=O)C(C)NC(=O)CCCCSc1ncnc2nc[nH]c12` (stereo not drawn) gave a logP of 1.51.
`S=C=S` gave a logP of 1.94.
With `COC(=O)CCC(=O)OC` the logP was 0.35.
`CCCCC(=O)OCC1CCC(n2cnc3c(=O)[nH]cnc32)O1` (stereo not drawn) gave a logP of 0.65.
With `C=CCBr` the logP was 1.79.
`CNC` showed a logP of -0.38.
Work on `CCOCCN(CCOCC)N=O` yielded a logP of 0.79.
Work on `O=[N+]([O-])CCO` yielded a logP of -0.42.
Work on `COc1ccccc1CO` yielded a logP of 1.13.
With `CNC(C)=O` the logP was -1.05.
For `COc1ccccc1C=CC(=O)OCCOc1ccc(C=NO)cc1OC`, the logP was 3.56.
For `O=CNc1cccc2cccnc12`, the logP was 1.8.
`N#CCc1cccc(Oc2ccccc2)c1` gave a logP of 3.03.
With `Clc1c(Cl)c(Cl)c2n[nH]nc2c1Cl` the logP was 4.17.
`CC(=O)Nc1cc(C)c(O)c(C)c1` showed a logP of 1.11.
Work on `CCCCC(=O)OCC(=O)C1(O)C(C)CC2C3CCC4=CC(=O)C=CC4(C)C3(F)C(O)CC21C` (stereo not drawn) yielded a logP of 3.87.
For `CC(=O)Nc1ccc(O)c(C(C)C)c1`, the logP was 1.71.
Work on `CCCC=O` yielded a logP of 0.88.
`CC(=O)N[C@@H](Cc1ccccc1)C(=O)NCC(N)=O` (Ac-Phe-Gly-NH2) showed a logP of -0.5.
